How the values were obtained:
Experiment in all cases: relative viability (nuclei count vs DMSO), 5 days (fraction); higher = more cells survive
Afatinib + Tozasertib = compound: CN(C)C/C=C/C(=O)Nc1cc2c(Nc3ccc(F)c(Cl)c3)ncnc2cc1O[C@H]1CCOC1 [Afatinib] + Cc1cc(Nc2cc(N3CCN(C)CC3)nc(Sc3ccc(NC(=O)C4CC4)cc3)n2)n[nH]1 [Tozasertib] (partner 0.1 µM)
Summary of the method: (§1)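 One day after seeding in 1536-well plates, lung cancer cell lines were dosed by pin tool. Dosing was either single-drug or a fixed anchor-drug dose plus five library-drug doses (not always all listed) in √10 steps. After 5 days, nuclei were stained in one fix-and-stain step and counted on 4× images, and relative viability is the nuclei count of treated wells over that of vehicle wells, given as the median of duplicate plates.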

Afatinib + Foretinib = compound: CN(C)C/C=C/C(=O)Nc1cc2c(Nc3ccc(F)c(Cl)c3)ncnc2cc1O[C@H]1CCOC1 [Afatinib] + COc1cc2c(Oc3ccc(NC(=O)C4(C(=O)Nc5ccc(F)cc5)CC4)cc3F)ccnc2cc1OCCCN1CCOCC1 [Foretinib] (partner 0.25 µM)
Summary of the method: as §1

Afatinib + AZD7762 = compound: CN(C)C/C=C/C(=O)Nc1cc2c(Nc3ccc(F)c(Cl)c3)ncnc2cc1O[C@H]1CCOC1 [Afatinib] + NC(=O)Nc1cc(-c2cccc(F)c2)sc1C(=O)N[C@H]1CCCNC1 [AZD7762] (partner 0.2 µM)
Summary of the method: as §1

Afatinib + Luminespib = compound: CN(C)C/C=C/C(=O)Nc1cc2c(Nc3ccc(F)c(Cl)c3)ncnc2cc1O[C@H]1CCOC1 [Afatinib] + CCNC(=O)c1noc(-c2cc(C(C)C)c(O)cc2O)c1-c1ccc(CN2CCOCC2)cc1 [Luminespib] (partner 0.01 µM)
Summary of the method: as §1

Cell Line	relative viability (Afatinib + Tozasertib; first compound 0.005 µM)	relative viability (Afatinib + Tozasertib; first compound 0.01581 µM)	relative viability (Afatinib + Tozasertib; first compound 0.05 µM)	relative viability (Afatinib + Tozasertib; first compound 0.1581 µM)	relative viability (Afatinib + Tozasertib; first compound 0.5 µM)	relative viability (Afatinib + Foretinib; first compound 0.005 µM)	relative viability (Afatinib + Foretinib; first compound 0.01581 µM)	relative viability (Afatinib + Foretinib; first compound 0.05 µM)	relative viability (Afatinib + Foretinib; first compound 0.1581 µM)	relative viability (Afatinib + Foretinib; first compound 0.5 µM)	relative viability (Afatinib + AZD7762; first compound 0.005 µM)	relative viability (Afatinib + AZD7762; first compound 0.01581 µM)	relative viability (Afatinib + AZD7762; first compound 0.05 µM)	relative viability (Afatinib + AZD7762; first compound 0.1581 µM)	relative viability (Afatinib + AZD7762; first compound 0.5 µM)	relative viability (Afatinib + Luminespib; first compound 0.005 µM)	relative viability (Afatinib + Luminespib; first compound 0.01581 µM)	relative viability (Afatinib + Luminespib; first compound 0.05 µM)	relative viability (Afatinib + Luminespib; first compound 0.1581 µM)	relative viability (Afatinib + Luminespib; first compound 0.5 µM)
NCI-H1793	0.315	0.377	0.252	0.147	0.242	0.621	0.463	0.401	0.352	0.353	0.193	0.304	0.451	0.268	0.231	0.19	0.215	0.238	0.168	0.173
NCI-H1915	0.522	0.46	0.414	0.427	0.419	1.19	1.05	1.11	1.02	0.974	0.67	0.708	0.685	0.723	0.682	0.807	0.848	0.772	0.743	0.596
NCI-H1944	0.234	0.247	0.216	0.195	0.208	0.797	0.899	0.668	0.535	0.657	0.297	0.496	0.413	0.343	0.404	0.609	0.629	0.552	0.498	0.491
NCI-H1975	0.7	0.702	0.641	0.268	0.218	0.952	0.907	0.872	0.353	0.303	0.867	0.676	0.538	0.43	0.312	0.199	0.18	0.199	0.122	0.169
NCI-H1993	0.556	0.582	0.601	0.617	0.549	0.551	0.598	0.6	0.675	0.618	0.548	0.521	0.544	0.432	0.416	0.752	0.557	0.58	0.549	0.571
NCI-H2085	0.795	0.754	0.721	0.619	0.619	0.888	0.773	0.791	0.59	0.628	0.753	0.957	0.897	0.636	0.753	0.405	0.396	0.409	0.32	0.296
NCI-H2087	0.232	0.25	0.267	0.229	0.202	1.19	1.16	1.24	1.15	0.842	1.15	1.45	1.27	1.31	1.21	0.178	0.163	0.21	0.167	0.161
NCI-H2126	0.852	0.813	0.668	0.571	0.632	1.03	1.19	1.08	0.729	0.853	1.02	1.02	0.822	0.776	0.793	0.958	0.861	0.796	0.681	0.718

— the supplement of paper PMC10307832
